Data reported in patent US20240382463A1, “Composition Comprising HDAC Inhibitor and Immune Checkpoin Inhibitor and Methods For Using the Same” (Avstera Therapeutics Corp., priority 2023, published 2024).
Where two headings read alike, the source gives them in different places.

Experiments:
[1] = tested on: S. typhimurium (TA98 and TA1537); settings: cited from earlier work
[2] = target: T1, HDAC6 (Homo sapiens, UniProt Q9UBN7); settings: cited from earlier work
T1 sequence (Q9UBN7 1-1215): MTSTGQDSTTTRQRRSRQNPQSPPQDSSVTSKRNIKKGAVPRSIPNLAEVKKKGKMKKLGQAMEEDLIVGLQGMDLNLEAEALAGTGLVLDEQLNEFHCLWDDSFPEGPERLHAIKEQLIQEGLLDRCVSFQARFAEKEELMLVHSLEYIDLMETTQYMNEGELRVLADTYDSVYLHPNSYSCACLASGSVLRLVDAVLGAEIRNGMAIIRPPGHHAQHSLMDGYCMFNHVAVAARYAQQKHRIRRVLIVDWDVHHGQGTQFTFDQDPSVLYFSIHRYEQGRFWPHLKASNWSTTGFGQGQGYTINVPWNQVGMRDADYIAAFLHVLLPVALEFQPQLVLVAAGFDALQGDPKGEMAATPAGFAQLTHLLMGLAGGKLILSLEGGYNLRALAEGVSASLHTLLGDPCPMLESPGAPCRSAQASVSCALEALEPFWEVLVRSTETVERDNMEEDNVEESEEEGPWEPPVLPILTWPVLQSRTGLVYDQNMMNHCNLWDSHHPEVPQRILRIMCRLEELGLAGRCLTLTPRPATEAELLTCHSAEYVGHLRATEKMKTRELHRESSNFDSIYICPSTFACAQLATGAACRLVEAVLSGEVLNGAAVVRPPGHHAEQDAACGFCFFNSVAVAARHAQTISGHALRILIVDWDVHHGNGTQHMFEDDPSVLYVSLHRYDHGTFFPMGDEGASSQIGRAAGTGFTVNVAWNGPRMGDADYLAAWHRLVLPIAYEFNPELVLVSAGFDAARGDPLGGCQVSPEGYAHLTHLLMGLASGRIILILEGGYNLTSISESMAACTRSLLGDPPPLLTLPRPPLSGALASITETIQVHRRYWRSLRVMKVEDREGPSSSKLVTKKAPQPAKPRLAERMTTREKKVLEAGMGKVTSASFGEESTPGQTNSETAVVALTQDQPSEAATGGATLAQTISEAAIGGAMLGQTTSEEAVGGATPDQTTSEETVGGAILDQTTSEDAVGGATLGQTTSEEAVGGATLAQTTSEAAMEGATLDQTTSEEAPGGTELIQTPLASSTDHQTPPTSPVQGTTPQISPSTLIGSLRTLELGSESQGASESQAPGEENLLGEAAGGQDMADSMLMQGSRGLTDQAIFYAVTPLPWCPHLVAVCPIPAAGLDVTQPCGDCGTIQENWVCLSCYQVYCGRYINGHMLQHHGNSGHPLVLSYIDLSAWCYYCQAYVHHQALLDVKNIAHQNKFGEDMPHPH

[3] = tested on: melanoma tumor models; settings: potentiates anti-PD1 therapy; tumors are not completely eliminated; cited from earlier work
[4] = tested on: S. typhimurium (TA98 and TA1537); test: Ames assay (mutagenicity); assay type: cell-based; settings: for increase in the number of colonies: with and without S9 mix
[5] = Hepatocyte stability; assay type: in vitro ADME; settings: human, hepatocytes; read-out: Hepatocytes stability (t½)
[6] = tested on: primary human macrophages; test: Polarization of primary human macrophages (qPCR, RNAseq); assay type: cell-based
Protocol: (§2) For qPCR, RNA was isolated by Trizol purification followed by reverse transcription using iScript™ cDNA Synthesis Kit and qPCR using iQ™ SYBR® Green Supermix (Biorad). qPCR were run on real time PCR, CFX Opus 96 (Biorad).
RNAseq libraries were prepared following the manufacturer's instructions. The feature-barcode matrices generated by the 10× Genomics CellRanger pipeline were analyzed with an SCTransform workflow (Seurat v4.3.0.1) in RStudio. Cells with greater than 10% mitochondrial counts, fewer than 100 genes detected, or with a number of counts greater than the 93rd percentile of counts were removed. Cell type recognition was performed using the reference-based scRNA-seq annotation package, SingleR. The Immunological Genome Project (ImmGen) was used as the reference dataset. The Seurat object was filtered to include the major immune cell populations present.
As a readout of polarization, changes were analyzed in the expression levels of genes associated with the M1 and M2 phenotype in human macrophages.

[7] = tested on: THP1 cells differentiated to macrophages; test: THP1 macrophages, M2 polarization signalling, Western blot; assay type: cell-based, human
Protocol: (§1) Immunoblot-blot, FACs, and gPCR: For western-blot analysis cell monolayers were washed in PBS and lyzed with complete RIPA buffer containing protease, phosphatases and the HDAC inhibitor Panabinostat (10 nM). Cells were sonicated for 12 cycles at high intensity and the cell lysates were centrifuged at 12,000 rpm for 10 minutes at 4° C. to remove the cell debris. Protein quantitation on the supernatants was performed using BCA assay. Protein samples were prepared at 1 ug/uL concentration with 6× Lamelli buffer and incubated for 5 minutes at 90° C. Precast gels containing 20 μg of protein/sample were run and the gels were transferred to a PVDF membrane and stained with specific antibodies. The antibodies used for western-blot are anti-α-tubulin (mouse DM1A, Cell Signaling Tech), anti-acetyl-α-tubulin (rabbit K40, Cell Signaling Tech), anti-iNOS (rabbit polyclonal, Invitrogen), anti-Arginasel (rabbit D4E3M, Cell Signaling Tech). Anti-c-Myc (rabbit D84C12, cell Signaling Tech), anti-acetylated-c-Myc (Rabbit polyclonal Acetyl-Lys148-c-Myc, Sigma-Aldrich), anti-Stat6 (Rabbit D3H4, Cell Signaling Tech), anti-Phospho-Stat6 (Polyclonal Rabbit, Cell Signaling Tech), anti-Stat3 (Rabbit 79D7, Cell Signaling Tech), anti-Phospho-Stat3-727 (Rabbit D8C2Z, Cell Signaling Tech), anti-phospho-Stat3-705 (Rabbit D3A7, Cell Signaling Tech). […]

[8] = tested on: myeloid and lymphoid lymphoma cell lines; test: c-Myc acetylation and levels in lymphoma cell lines, Western blot; assay type: cell-based, human
Protocol: as §1

[9] = tested on: SM1 melanoma tumors; test: SM1 melanoma model, in vivo tumor growth; set-up: species or system C57BL/6 mice
Protocol: In vivo tumor growth: Analysis of tumor growth using the murine SM1 melanoma model were performed in accordance with IACUC guidelines at Georgetown University. Murine melanoma tumors were established by implanting 0.75×10^6 SM1 cells in the right flank area of 6-8 weeks-old female C57BL/6 mice. […] Anti-PD1 or isotype control (BE0146-CUST and BE0089-CUST, Bio X cell) were injected i.p. (15 mg/kg) in 100 ul PBS every other day. Tumor growth was monitored using electronic calipers, the length and width of detected tumors were measured every other day and tumor volumes calculated using the formula ½*length*(width)^2. The body weights of animals were recorded once a week using a portable scale to monitor general health.

[10] = tested on: CT26 colon cancer tumors; test: CT26 colon cancer model, in vivo tumor growth; set-up: species or system Balb/c mice
Protocol: For the CT26 colon cancer model animal studies were performed by Adgyl Lifesciences. Mice were implanted with 0.5×10^6 CT26 cells in the right flanks of 7-8 week-old female Balb/c mice. […] Tumor volume and body weight were monitored twice weekly. Tumor dissection and single-cell suspension: Tumor single-cell suspensions were obtained by mincing the tumor tissue with scalps in petri dishes with complete media, followed by incubation of the minced tumors in a digestion solution (collagenase I, collagenase IV, hyaluronidase V, and DNase I) at 37° C. with rotation for 30-45 min. The digested solution was passed by a cell strainer to remove undigested material, centrifuged, washed and resuspended in complete media.

[11] = Plasma pharmacokinetics after oral gavage; assay type: in vivo, C57BL/6 mice; settings: PEG6000 formulation compared to the CMC formulation
Protocol: LS-MS: Plasma samples were obtained using EDTA as anticoagulant and run by Adgyl Life Sciences using a fit for purpose LC-MS/MS method. Briefly, plasma samples were run in a triple Quad 6500+LC-MS/MS System using a 50:50 (ACN:Water v/v) working solution diluent. A mobile Phase A: 2 mM Ammonium formate with 0.1% Formic acid, a mobile Phase B: Acetonitrile with 0.1% formic Acid Isocratic mode; Pump A:B: 50:50. Using a Phenomenex Phenyl-Hexyl column of Sum particle size. […] The calibration curve was generated using area ratio of analyte area: area of internal standard vs concentration and was regressed using linear regression equation and weighting of 1/x2.
The plasma pharmacokinetic parameters of SS-208 were determined from concentration time curves obtained following a single IV and oral route of administration in male C57BL/6 mice. Values are expressed as mean and n=3 mice/time point/group.
However, tumors are not completely eliminated. […] For oral gavage, CMC or PEG6000 formulations were used in fed or starved mice.

[12] = tested on: murine bone marrow-derived macrophages (BMDM)
From the text: as §2

[13] = target: hERG (Homo sapiens, UniProt Q12809); test: hERG test; settings: up to 30 μM
[14] = GLP safety and toxicology studies; settings: rats and dogs
[15] = tested on: BMA31A7 murine macrophages; test: M2 polarization of BMA31A7 macrophages, Western blot
From the text: (§3) Two different cell lines were used as they are better models for polarization towards M1 and M2, respectively.

[16] = Safety pharmacology (CNS, pulmonary, cardiovascular); settings: in vivo
[17] = tested on: Raw264.7 murine macrophages; test: M1 polarization of Raw264.7 macrophages, Western blot
From the text: as §3

hERG, sequence (Q12809 whole entry): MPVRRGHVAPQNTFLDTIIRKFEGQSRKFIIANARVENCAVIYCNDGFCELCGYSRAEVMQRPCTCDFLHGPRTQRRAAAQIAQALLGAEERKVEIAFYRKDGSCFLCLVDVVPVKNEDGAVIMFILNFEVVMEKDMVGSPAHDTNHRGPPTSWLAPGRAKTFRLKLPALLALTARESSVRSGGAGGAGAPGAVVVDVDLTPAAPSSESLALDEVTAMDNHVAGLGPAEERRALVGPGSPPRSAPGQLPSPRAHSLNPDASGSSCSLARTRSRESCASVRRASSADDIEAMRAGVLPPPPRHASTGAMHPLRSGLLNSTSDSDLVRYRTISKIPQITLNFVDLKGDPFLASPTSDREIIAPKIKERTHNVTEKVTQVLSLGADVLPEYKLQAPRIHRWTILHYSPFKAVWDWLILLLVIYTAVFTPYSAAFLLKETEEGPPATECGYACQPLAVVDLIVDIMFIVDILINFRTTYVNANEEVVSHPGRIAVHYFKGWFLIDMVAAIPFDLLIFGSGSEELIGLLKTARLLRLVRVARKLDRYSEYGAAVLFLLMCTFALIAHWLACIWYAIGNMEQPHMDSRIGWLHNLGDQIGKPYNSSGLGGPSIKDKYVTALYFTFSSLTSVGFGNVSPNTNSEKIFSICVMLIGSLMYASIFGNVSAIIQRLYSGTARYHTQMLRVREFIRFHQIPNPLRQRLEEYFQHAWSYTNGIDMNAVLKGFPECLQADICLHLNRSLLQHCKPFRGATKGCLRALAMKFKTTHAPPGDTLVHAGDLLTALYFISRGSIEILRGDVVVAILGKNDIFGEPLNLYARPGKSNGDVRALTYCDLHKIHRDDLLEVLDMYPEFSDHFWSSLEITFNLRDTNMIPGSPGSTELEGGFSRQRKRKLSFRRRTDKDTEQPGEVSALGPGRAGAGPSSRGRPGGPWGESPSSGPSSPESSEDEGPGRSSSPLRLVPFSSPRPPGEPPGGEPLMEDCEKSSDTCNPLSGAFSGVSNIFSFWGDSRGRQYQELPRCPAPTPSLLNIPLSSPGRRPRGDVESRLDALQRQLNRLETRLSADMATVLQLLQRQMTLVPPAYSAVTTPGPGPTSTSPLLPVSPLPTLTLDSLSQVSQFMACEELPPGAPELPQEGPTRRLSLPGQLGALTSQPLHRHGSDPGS

O=C(NO)c1ccc(CN2CCCc3cc(Cl)ccc32)cc1 [SW100]
AMES test (in words) [1]: AMES-negative

O=C(CCCCCCNC(=O)c1cnc(N(c2ccccc2)c2ccccc2)nc1)NO [ACY-1215]
specificity over HDAC6 than other HDAC isoforms [2]: ten-fold

CCCCN(Cc1ccc(C(=O)NO)cc1)C(=O)Nc1ccccc1 [Nexturastat-A]
antitumoral effect in melanoma tumor models [3]: antitumoral effect

O=C(NCCc1cc(C(=O)NO)no1)c1ccc(Cl)c(Cl)c1 [AVS100, 5-(2-(3,4-dichlorobenzamido)ethyl)-N-hydroxyisoxazole-3-carboxamide]
AMES test (in words) [4]: AMES-negative | Ames test (with and without S9) ([4]; TA98, TA1537): negative | increase in the number of colonies ([4]; tester strain TA98, any dose): < 2 fold | increase in the number of colonies ([4]; tester strain TA1537, any dose): < 3 fold | half-life [5]: 2.25 h | genes of the RelA/NFKB transcriptional program inhibited in M1 cells ([6]; RNAseq, Trust pathway analysis): 45 genes | Cox2, Ccl5, and Socs1 induction ([6]; qPCR, M1 (IFN-γ plus LPS)): partially inhibited | M1 markers Cd64, Tnf and Ido induction ([6]; qPCR, M1 (IFN-γ plus LPS)): did not affect | induction of the M2 markers Cd209, Cd200r1, Mrc1, Tgm2, and Il10 ([6]; qPCR, M2 (IL-4)): prevented | STAT6 phosphorylation in response to IL-4 [7]: not inhibited | c-Myc levels in M0 and M2 polarized macrophages [7]: reduced | acetyl-c-Myc [8]: increased | total c-Myc levels [8]: reduced | tumor growth ([9]; 100 mg/kg, daily oral gavage, standalone): significantly reduced | tumor growth, standalone therapies ([9]; AVS100 daily oral gavage, anti-PD1 i.p.): similarly reduced | intratumoral CD4 T-cells ([9]; flow cytometry): reduction | intratumoral CD8 T-cells ([9]; flow cytometry): increase | Cluster 0, IFN-TAMs ([9]; scRNAseq of CD45+ cells): increased | central memory CD8 T-cells (CD62L+CD44+) ([9]; standalone treatment): specific increase | tumor growth ([10]; AVS100 100 mg/kg daily gavage, anti-PD1 10 mg/kg i.p. every 4 days): significant tumor growth inhibition | responders with tumor volume lower than 300 mm^3 ([10]; CT26 colon cancer): 20% | M1-like TAMs ([10]; treatment alone): significant increase | M2-like TAMs ([10]; treatment alone): significant reduction | area under the curve (AUC) levels [11]: higher | bioavailability [11]: higher | maximum concentrations in blood (Cmax) [11]: higher | Arg1 levels in M2 polarizing conditions ([12]; Western blot): reduced | iNOS levels under M1 polarizing conditions ([12]; Western blot): partial reduction | Il1b levels in M1 cells ([12]; qPCR): increased | M2 markers Arg1, Fizz1, and Tgfb in M2 cells ([12]; qPCR): inhibition | Nos2 levels ([12]; qPCR): did not affect | inhibition in the hERG assay [13]: no significant inhibition | mutagenicity or toxicity in GLP studies [14]: no mutagenicity, toxicity, or adverse effects | acetyl-α-tubulin levels ([15]; BMA31A7, AVS100 10 uM): increased | Arg1 upregulation under M2 polarizing conditions ([15]; IL-4 plus IL-13, AVS100 10 uM): blocked | alterations of CNS behavior, pulmonary or cardiovascular function [16]: no alterations | increase of iNOS levels under M1 polarizing conditions ([17]; LPS plus IFNγ, AVS100 10 uM): did not affect | acetyl-α-tubulin levels ([17]; Raw264.7, AVS100 10 uM): increased
